{
  "source": "PubChem BioAssay AID258",
  "about": "(DTP/NCI, 2004)",
  "system": "CD2F1 mice, L1210 leukemia sc, survival T/C",
  "assay": "NCI In Vivo Anticancer Drug Screen. Data for tumor model L1210 Leukemia (subcutaneous) in CD2F1 (CDF1) mice",
  "conditions": "endpoint: median survival time, higher = longer survival",
  "method_in_brief": "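Antitumor activity is scored in tumor-bearing mice by comparing survival or tumor size of treated animals against vehicle-treated controls, reported as T/C.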",
  "note": "Where “and” joins values, the source holds several entries; their conditions need not be identical. Equal values may be shown once. Toxic doses and inconclusive results are not listed.",
  "data": [
    {"smiles": "CS(=O)(=O)CS(=O)(=O)OCCCl", "values": [
      {"measurement": "T/C", "setting": "dose: 1.5 mg/kg/injection, schedule: Q03HX024 (ip), vehicle: other", "result": "106 % of control"},
      {"measurement": "T/C", "setting": "dose: 3.1 mg/kg/injection, schedule: Q03HX008 (ip), vehicle: other", "result": "109 % of control"},
      {"measurement": "T/C", "setting": "dose: 3.1 mg/kg/injection, schedule: Q03HX024 (ip), vehicle: other", "result": "113 % of control"},
      {"measurement": "T/C", "setting": "dose: 6.2 mg/kg/injection, schedule: Q01DX005 (iv), vehicle: other", "result": "104 % of control"},
      {"measurement": "T/C", "setting": "dose: 6.2 mg/kg/injection, schedule: Q03HX008 (ip), vehicle: other", "result": "115 % of control"},
      {"measurement": "T/C", "setting": "dose: 6.2 mg/kg/injection, schedule: Q03HX024 (ip), vehicle: other", "result": "154 % of control"},
      {"measurement": "T/C", "setting": "dose: 11.8 mg/kg/injection, schedule: Q03HX008 (ip), vehicle: dextrose", "result": "187 % of control"},
      {"measurement": "T/C", "setting": "dose: 12.5 mg/kg/injection, schedule: Q01DX001 (iv), vehicle: other", "result": "106 % of control"},
      {"measurement": "T/C", "setting": "dose: 12.5 mg/kg/injection, schedule: Q01DX005 (iv), vehicle: other", "result": "114 % of control"},
      {"measurement": "T/C", "setting": "dose: 12.5 mg/kg/injection, schedule: Q01DX009 (ip), vehicle: other", "result": "122 % of control"},
      {"measurement": "T/C", "setting": "dose: 12.5 mg/kg/injection, schedule: Q01DX009 (ip), vehicle: saline with Tween-80", "result": "123 % of control"},
      {"measurement": "T/C", "setting": "dose: 12.5 mg/kg/injection, schedule: Q03HX008 (ip), vehicle: other", "result": "155 % of control"},
      {"measurement": "T/C", "setting": "dose: 12.5 mg/kg/injection, schedule: Q03HX024 (ip), vehicle: other", "result": "240 % of control"},
      {"measurement": "T/C", "setting": "dose: 12.5 mg/kg/injection, schedule: Q04DX003 (ip), vehicle: other", "result": "112 % of control"},
      {"measurement": "T/C", "setting": "dose: 16.8 mg/kg/injection, schedule: Q03HX008 (ip), vehicle: dextrose", "result": "217 % of control"},
      {"measurement": "T/C", "setting": "dose: 24.0 mg/kg/injection, schedule: Q01DX009 (ip), vehicle: dextrose", "result": "168 % of control"},
      {"measurement": "T/C", "setting": "dose: 24.0 mg/kg/injection, schedule: Q03HX008 (ip), vehicle: dextrose", "result": "600 % of control"},
      {"measurement": "T/C", "setting": "dose: 25.0 mg/kg/injection, schedule: Q01DX001 (ip), vehicle: other", "result": "111 % of control"},
      {"measurement": "T/C", "setting": "dose: 25.0 mg/kg/injection, schedule: Q01DX001 (iv), vehicle: other", "result": "119 % of control"},
      {"measurement": "T/C", "setting": "dose: 25.0 mg/kg/injection, schedule: Q01DX009 (ip), vehicle: other", "result": "176 % of control"},
      {"measurement": "T/C", "setting": "dose: 25.0 mg/kg/injection, schedule: Q01DX009 (ip), vehicle: saline with Tween-80", "result": "154 % of control"},
      {"measurement": "T/C", "setting": "dose: 25.0 mg/kg/injection, schedule: Q03HX008 (ip), vehicle: other", "result": "618 % of control"},
      {"measurement": "T/C", "setting": "dose: 25.0 mg/kg/injection, schedule: Q03HX024 (ip), vehicle: other", "result": "618 % of control"},
      {"measurement": "T/C", "setting": "dose: 25.0 mg/kg/injection, schedule: Q04DX003 (ip), vehicle: other", "result": "124 % of control"},
      {"measurement": "T/C", "setting": "dose: 34.3 mg/kg/injection, schedule: Q01DX005 (ip), vehicle: dextrose", "result": "183 % of control"},
      {"measurement": "T/C", "setting": "dose: 34.3 mg/kg/injection, schedule: Q01DX009 (ip), vehicle: dextrose", "result": "204 % of control"},
      {"measurement": "T/C", "setting": "dose: 34.3 mg/kg/injection, schedule: Q03HX008 (ip), vehicle: dextrose", "result": "600 % of control"},
      {"measurement": "T/C", "setting": "dose: 49.0 mg/kg/injection, schedule: Q01DX001 (ip), vehicle: dextrose", "result": "153 % of control"},
      {"measurement": "T/C", "setting": "dose: 49.0 mg/kg/injection, schedule: Q01DX002 (ip), vehicle: dextrose", "result": "180 % of control"},
      {"measurement": "T/C", "setting": "dose: 49.0 mg/kg/injection, schedule: Q01DX005 (ip), vehicle: dextrose", "result": "238 % of control"},
      {"measurement": "T/C", "setting": "dose: 49.0 mg/kg/injection, schedule: Q01DX009 (ip), vehicle: dextrose", "result": "270 % of control"},
      {"measurement": "T/C", "setting": "dose: 49.0 mg/kg/injection, schedule: Q03HX008 (ip), vehicle: dextrose", "result": "600 % of control"},
      {"measurement": "T/C", "setting": "dose: 50.0 mg/kg/injection, schedule: Q01DX001 (oral), vehicle: other", "result": "107 % of control"},
      {"measurement": "T/C", "setting": "dose: 50.0 mg/kg/injection, schedule: Q01DX005 (ip), vehicle: other", "result": "207 % of control"},
      {"measurement": "T/C", "setting": "dose: 50.0 mg/kg/injection, schedule: Q01DX005 (iv), vehicle: other", "result": "226 % of control"},
      {"measurement": "T/C", "setting": "dose: 50.0 mg/kg/injection, schedule: Q01DX009 (ip), vehicle: other", "result": "317 % of control"},
      {"measurement": "T/C", "setting": "dose: 50.0 mg/kg/injection, schedule: Q01DX009 (ip), vehicle: saline with Tween-80", "result": "242 % of control"},
      {"measurement": "T/C", "setting": "dose: 50.0 mg/kg/injection, schedule: Q01DX009 (oral), vehicle: other", "result": "168 % of control"},
      {"measurement": "T/C", "setting": "dose: 50.0 mg/kg/injection, schedule: Q03HX008 (ip), vehicle: other", "result": "103 % of control"},
      {"measurement": "T/C", "setting": "dose: 50.0 mg/kg/injection, schedule: Q04DX003 (ip), vehicle: other", "result": "209 % of control"},
      {"measurement": "T/C", "setting": "dose: 70.0 mg/kg/injection, schedule: Q01DX001 (ip), vehicle: dextrose", "result": "180 % of control"},
      {"measurement": "T/C", "setting": "dose: 70.0 mg/kg/injection, schedule: Q01DX002 (ip), vehicle: dextrose", "result": "290 % of control"},
      {"measurement": "T/C", "setting": "dose: 70.0 mg/kg/injection, schedule: Q01DX005 (ip), vehicle: dextrose", "result": "600 % of control"},
      {"measurement": "T/C", "setting": "dose: 70.0 mg/kg/injection, schedule: Q01DX009 (ip), vehicle: dextrose", "result": "600 % of control"},
      {"measurement": "T/C", "setting": "dose: 100.0 mg/kg/injection, schedule: Q01DX001 (ip), vehicle: dextrose", "result": "240 % of control"},
      {"measurement": "T/C", "setting": "dose: 100.0 mg/kg/injection, schedule: Q01DX001 (ip), vehicle: other", "result": "618 % of control"},
      {"measurement": "T/C", "setting": "dose: 100.0 mg/kg/injection, schedule: Q01DX001 (iv), vehicle: other", "result": "618 % of control"},
      {"measurement": "T/C", "setting": "dose: 100.0 mg/kg/injection, schedule: Q01DX002 (ip), vehicle: dextrose", "result": "600 % of control"},
      {"measurement": "T/C", "setting": "dose: 100.0 mg/kg/injection, schedule: Q01DX005 (ip), vehicle: dextrose", "result": "600 % of control"},
      {"measurement": "T/C", "setting": "dose: 100.0 mg/kg/injection, schedule: Q01DX005 (ip), vehicle: other", "result": "618 % of control"},
      {"measurement": "T/C", "setting": "dose: 100.0 mg/kg/injection, schedule: Q01DX005 (iv), vehicle: other", "result": "618 % of control"},
      {"measurement": "T/C", "setting": "dose: 100.0 mg/kg/injection, schedule: Q01DX009 (ip), vehicle: dextrose", "result": "600 % of control"},
      {"measurement": "T/C", "setting": "dose: 100.0 mg/kg/injection, schedule: Q01DX009 (ip), vehicle: other", "result": "216 % of control"},
      {"measurement": "T/C", "setting": "dose: 100.0 mg/kg/injection, schedule: Q01DX009 (oral), vehicle: other", "result": "240 % of control"},
      {"measurement": "T/C", "setting": "dose: 100.0 mg/kg/injection, schedule: Q04DX003 (ip), vehicle: other", "result": "353 % of control"},
      {"measurement": "T/C", "setting": "dose: 142.9 mg/kg/injection, schedule: Q01DX001 (ip), vehicle: dextrose", "result": "600 % of control"},
      {"measurement": "T/C", "setting": "dose: 142.9 mg/kg/injection, schedule: Q01DX002 (ip), vehicle: dextrose", "result": "600 % of control"},
      {"measurement": "T/C", "setting": "dose: 142.9 mg/kg/injection, schedule: Q01DX005 (ip), vehicle: dextrose", "result": "101 % of control"},
      {"measurement": "T/C", "setting": "dose: 200.0 mg/kg/injection, schedule: Q01DX001 (oral), vehicle: other", "result": "618 % of control"},
      {"measurement": "T/C", "setting": "dose: 200.0 mg/kg/injection, schedule: Q01DX009 (oral), vehicle: other", "result": "384 % of control"}
    ]},
    {"smiles": "CN1c2c(nc(N)[nH]c2=O)NCC1CCNc1ccc(C(=O)NC(CCC(=O)O)C(=O)O)cc1", "note": "(configuration not stated)", "values": [
      {"measurement": "T/C", "setting": "dose: 200.0 mg/kg/injection, schedule: Q01DX009 (ip), vehicle: other", "result": "150 % of control"},
      {"measurement": "T/C", "setting": "dose: 200.0 mg/kg/injection, schedule: Q01DX Z (ip), vehicle: other", "result": "155 % of control"},
      {"measurement": "T/C", "setting": "dose: 200.0 mg/kg/injection, schedule: Q04DX003 (ip), vehicle: other", "result": "116 % of control"},
      {"measurement": "T/C", "setting": "dose: 400.0 mg/kg/injection, schedule: Q01DX009 (ip), vehicle: other", "result": "155 % of control"},
      {"measurement": "T/C", "setting": "dose: 400.0 mg/kg/injection, schedule: Q01DX Z (ip), vehicle: other", "result": "155 % of control and 166 % of control"},
      {"measurement": "T/C", "setting": "dose: 400.0 mg/kg/injection, schedule: Q04DX003 (ip), vehicle: other", "result": "111 % of control"},
      {"measurement": "T/C", "setting": "dose: 1600.0 mg/kg/injection, schedule: Q04DX003 (ip), vehicle: other", "result": "111 % of control"}
    ]}
  ]
}
